One test relates to LoVo colon cancer cells. The experiment in a line: MTT colorimetric assay, overall cell growth, LoVo. It counts as cell-based, human. The following applies: 72 hours of incubation, read-out: In Vitro IC50 Growth Inhibitory Values, LoVo. From the text: (§1) The amount of formazan obtained at the end of the experiment, measured by means of a spectrophotometer, is directly proportional to the number of living cells. Optical density determination thus enabled a quantitative measurement of the effect of the investigated compounds as compared to the control condition (untreated cells) and/or to other reference compounds. Eleven human cancer cell lines and one mouse melanoma cell-line (B16F10) described in Table 2 were used in the following MTT tests. These cancer cell lines cover seven histological cancer types including prostate (PC3), glioma (Hs683, T98G, U373, melanoma (VM21, VM28), non-small-cell-lung (A549), breast (MCF-7), colon (LoVo) and oesophageal (OE21, OE33) cancers. […] Each cell line was seeded in its appropriate culture medium. The detailed experimental procedure was the following: after a 24-hour period of incubation at 37° C., the culture medium was replaced by 100 μl of fresh medium in which the tested compound was previously dissolved, at the following molar concentrations: 10^-8 […] and 10^-4 M. Each experiment was performed in sestuplicates (6 times). After 72 hours of incubation at 37° C. with (experimental conditions) or without (control condition) the compound to be tested, the medium was replaced by 100 μl MTT dissolved in RPMI (1640 without phenol red) at a concentration of 0.5 or 1 mg/ml. The micro-wells were subsequently incubated during 3 hours and a half at 37° C. and centrifuged at 1300 rpm during 10 minutes. MTT was removed and formazan crystals formed were dissolved in 100 μl DMSO. The micro-wells were shaken for 5 minutes and read on a spectrophotometer at wavelengths of 570 nm (maximal formazan absorbance). For each experimental condition, the mean optical density was calculated, allowing the determination of the percentage of remaining living cells in comparison to the control. […] The origin of all the cell lines we used, along with their biological characteristics, and the validation procedures of the MTT colorimetric assay as employed here are fully detailed in Van Quaquebeke et al., 2005, J Med Chem 48:849-856; […]
(In general: Tetrazolium assays rely on reduction of a dye to a coloured formazan, in cell work by metabolically active cells.)

Test [1] relates to A549 non-small-cell-lung cancer cells. Briefly: MTT colorimetric assay, overall cell growth, A549. The format is cell-based, human. As to conditions: read-out: In Vitro IC50 Growth Inhibitory Values, A549.
From the text: as §1

Another test relates to VM48 melanoma cells. The experiment in a line: MTT colorimetric assay, overall cell growth, VM48. The format is cell-based, human. As to conditions: MTT, 72 hours of incubation, read-out: In Vitro IC50 Growth Inhibitory Values, VM48.
Test [2] relates to MCF-7 breast cancer cells. The experiment in a line: MTT colorimetric assay, overall cell growth, MCF-7. It counts as cell-based, human. As to conditions: read-out: In Vitro IC50 Growth Inhibitory Values, MCF-7.
From the text: as §1

Test [3] deals with OE21 oesophageal cancer cells. Briefly: MTT colorimetric assay, overall cell growth, OE21. It counts as cell-based, human. As to conditions: read-out: In Vitro IC50 Growth Inhibitory Values, OE21.
From the text: as §1

In the next test the test system is VM21 melanoma cells. The experiment in a line: MTT colorimetric assay, overall cell growth, VM21. The format is cell-based, human. As to conditions: MTT, 72 hours of incubation, read-out: In Vitro IC50 Growth Inhibitory Values, VM21.
From the text: as §1

The test system of the next test is U373 glioblastoma cells. The experiment in a line: MTT colorimetric assay, overall cell growth, U373. The format is cell-based, human. The following applies: 72 hours of incubation, read-out: In Vitro IC50 Growth Inhibitory Values, U373.
From the text: as §1

Test [4] deals with PC-3 prostate cancer cells. The experiment in a line: MTT colorimetric assay, overall cell growth, PC-3. It counts as cell-based, human. The following applies: 72 hours of incubation, read-out: In Vitro IC50 Growth Inhibitory Values, PC-3.
From the text: as §1

The test system of a further test is T98G glioma cells. The experiment in a line: MTT colorimetric assay, overall cell growth, T98G. The following applies: 72 hours of incubation, read-out: In Vitro IC50 Growth Inhibitory Values, T98G. The format is cell-based, human.
From the text: as §1

The test system of test [5] is Eleven human cancer cell lines. Briefly: MTT colorimetric assay, across the eleven human cancer cell lines. It counts as cell-based. As to conditions: mean ± SEM over the 11 human cancer cell lines, MTT, 72 hours; read-out: In Vitro IC50 Growth Inhibitory Values, m ± SEM.
From the text: as §1

Test [6] relates to OE33 oesophageal cancer cells. Briefly: MTT colorimetric assay, overall cell growth, OE33. The format is cell-based, human. The following applies: read-out: In Vitro IC50 Growth Inhibitory Values, OE33.
From the text: as §1

The subject of another test is Hs683 glioma cells. Briefly: MTT colorimetric assay, overall cell growth, Hs683. As to conditions: read-out: In Vitro IC50 Growth Inhibitory Values, Hs683. The format is cell-based, human.
From the text: as §1

Test [7] concerns B16F10 melanoma cell-line. Briefly: MTT colorimetric assay, overall cell growth, B16F10. The following applies: read-out: In Vitro IC50 Growth Inhibitory Values, B16F10. It counts as cell-based, mouse.
From the text: as §1

[8] abbreviates: Homo sapiens, A549, 72 hours of incubation.
The mark [9] stands for this setting: Homo sapiens, MCF7, 72 hours of incubation.
Where [10] appears, read: Homo sapiens, OE21, 72 hours of incubation.
Setting [11] is: Homo sapiens, OE33, 72 hours of incubation.
Where [12] appears, read: Homo sapiens, Hs 683, 72 hours of incubation.
The mark [13] stands for this setting: Mus musculus, B16-F10, 72 hours of incubation.

The structures appear in SMILES notation. Read-outs that look alike come from different tables or passages of the source. Bounds are passed on as bounds.

A word on the IC50: it is the midpoint of a concentration-inhibition curve. For the molecule `O=C(O[C@H]1CCCC[C@@H]1OC(=O)c1cc(O)c(O)c(O)c1)c1cc(O)c(O)c(O)c1` (stereo in doubt) [DLT33, S,S-trans-cyclohexane 1,2-diyl bis-(3,4,5-trihydroxybenzoate)], the IC50 with LoVo colon cancer cells came to 43 µM; in test [1] (72 hours of incubation), 30 µM; with VM48 melanoma cells, 51 µM; in test [2] (72 hours of incubation), 58 µM; in test [3] (72 hours of incubation), 43 µM; in the test on VM21 melanoma cells, 38 µM. For the same molecule, the IC50 in the test with U373 glioblastoma cells was 35 µM; in test [4] it was 44 µM; in the test on T98G glioma cells, 38 µM; in [5], 43 µM; in test [6] (72 hours of incubation), 66 µM; in the test with Hs683 glioma cells (72 hours of incubation), 32 µM. In addition, the IC50 in [7] (72 hours of incubation) worked out at 22 µM.
As to `O=C(O[C@@H]1CCCC[C@H]1OC(=O)c1cc(O)c(O)c(O)c1)c1cc(O)c(O)c(O)c1` (stereo in doubt) [DLT34, R,R-trans-cyclohexane 1,2-diyl bis-(3,4,5-trihydroxybenzoate)], the half-inhibitory concentration (IC50) is 34 µM in the test with LoVo colon cancer cells; 32 µM in test [1] (72 hours of incubation); 28 µM in the test with VM48 melanoma cells; 28 µM in test [2] (72 hours of incubation); 37 µM in test [3] (72 hours of incubation); 91 µM in the test with VM21 melanoma cells. Moreover, the half-maximal inhibitory concentration (IC50) in the test on U373 glioblastoma cells was 37 µM; in test [4], 68 µM; with T98G glioma cells, 31 µM; in test [5] it was 41 µM; in test [6] (72 hours of incubation), 45 µM; in the test on Hs683 glioma cells (72 hours of incubation), 24 µM. Moreover, the IC50 in [7] (72 hours of incubation) was 0.3 µM.
Turning to `COc1cc(C(=O)O[C@H]2CCC[C@H]2OC(=O)c2ccc(O)c(OC)c2)ccc1O` [DLT14, cis-cyclopentane-1,2-diyl bis-(4-hydroxy-3-methoxybenzoate)], the half-maximal inhibitory concentration (IC50) with LoVo colon cancer cells (Homo sapiens, LoVo) turned out to be 24 µM; in [1] (setting [8]), 24 µM; with VM48 melanoma cells (Homo sapiens), 22 µM; in test [2] (setting [9]), 27 µM; in test [3] (setting [10]), 28 µM; in the test on VM21 melanoma cells (Homo sapiens), 33 µM. The IC50 in the test with U373 glioblastoma cells (Homo sapiens, U373 MG) amounted to 36 µM; in test [4] (Homo sapiens), 36 µM; in the test on T98G glioma cells (Homo sapiens, T98G), 32 µM; in test [5], 29 µM; in [6] (setting [11]), 28 µM; in the test on Hs683 glioma cells (setting [12]), 27 µM. Also, the IC50 in [7] (setting [13]) was 9 µM.
For `O=C(OCCOC(=O)c1ccc(O)c(Cl)c1)c1ccc(O)c(Cl)c1` [DLT23, Ethane-1,2-diyl bis-(4-hydroxy-3-chlorobenzoate)], the IC50 in the test with LoVo colon cancer cells (Homo sapiens, LoVo) was found to be 48 µM; in [1] (setting [8]) it was 72 µM; in the test on VM48 melanoma cells (Homo sapiens), 84 µM; in [2] (setting [9]), 53 µM; in test [3] (setting [10]) it was 31 µM; in the test with VM21 melanoma cells (Homo sapiens), 34 µM. Also, the IC50 was found to be 52 µM in the test on U373 glioblastoma cells (Homo sapiens, U373 MG); 81 µM in test [4] (Homo sapiens); 45 µM in the test on T98G glioma cells (Homo sapiens, T98G); 57 µM in [5]; 73 µM in test [6] (setting [11]); 53 µM in the test on Hs683 glioma cells (setting [12]). For the same molecule, the IC50 in test [7] (setting [13]) is 27 µM.
As to `O=C(OCCOC(=O)c1cc(O)c(O)c(O)c1)c1cc(O)c(O)c(O)c1` [DLT31, Ethane-1,2-diyl bis-(3,4,5-trihydroxybenzoate)], the IC50 in the test with LoVo colon cancer cells (Homo sapiens, LoVo) was 29 µM; in [1] (setting [8]) it was 23 µM; in the test with VM48 melanoma cells (Homo sapiens), 35 µM; in test [2] (setting [9]), 55 µM; in test [3] (setting [10]) it was 16 µM; in the test with VM21 melanoma cells (Homo sapiens), 37 µM. For the same molecule, the IC50 in the test with U373 glioblastoma cells (Homo sapiens, U373 MG) came to 28 µM; in [4] (Homo sapiens), 30 µM; with T98G glioma cells (Homo sapiens, T98G), 28 µM; in test [5] it was 30 ± 3 µM; in test [6] (setting [11]) it was 19 µM; with Hs683 glioma cells (setting [12]) it was 27 µM. The IC50 in test [7] (setting [13]) is 41 µM.
For `COc1cc(C(=O)NCCCNC(=O)c2ccc(O)c(OC)c2)ccc1O` [DLT36, N,N′-Propane-1,3-diyl bis-(4-hydroxy-3-methoxybenzamide)], the IC50 in the test on LoVo colon cancer cells was determined as 32 µM; in test [1] (72 hours of incubation) it was 26 µM; with VM48 melanoma cells it was 43 µM; in test [2] (72 hours of incubation) it was 25 µM; in [3] (72 hours of incubation) it was 28 µM; in the test on VM21 melanoma cells it was 49 µM. The IC50 with U373 glioblastoma cells worked out at 38 µM; in test [4], 40 µM; in the test on T98G glioma cells it was 40 µM; in test [5], 35 ± 2 µM; in test [6] (72 hours of incubation), 36 µM; in the test with Hs683 glioma cells (72 hours of incubation) it was 31 µM. The IC50 in [7] (72 hours of incubation) stood at 38 µM.
On to `COc1cc(C(=O)NCCCCCNC(=O)c2ccc(O)c(OC)c2)ccc1O` [DLT37, N,N′-Pentane-1,5-diyl bis-(4-hydroxy-3-methoxybenzamide)], for which the IC50 in the test on LoVo colon cancer cells was 41 µM; in test [1] (72 hours of incubation), 52 µM; in the test with VM48 melanoma cells, more than 100 µM; in [2] (72 hours of incubation) it was 71 µM; in test [3] (72 hours of incubation), 81 µM; with VM21 melanoma cells it was more than 100 µM. The IC50 is 91 µM in the test with U373 glioblastoma cells; more than 100 µM in test [4]; 55 µM with T98G glioma cells; more than 100 µM in test [5]; more than 100 µM in test [6] (72 hours of incubation); 80 µM with Hs683 glioma cells (72 hours of incubation). For the same molecule, the IC50 in test [7] (72 hours of incubation) was more than 100 µM.

The values above are taken from US20110280940A1, “Di-Vanilloyl And Tri-Vanilloyl Derivatives For Use In Anti-Cancer Therapy” (priority 2008, published 2011).
